# Measured values: patent US20100184732A1, “METHOD OF LONG-TERM TREATMENT OF GRAFT-VERSUS-HOST DISEASE USING TOPICAL ACTIVE CORTICOSTEROIDS” (priority 2000, published 2010)
# Assays:
# patients with GVHD = conditions: high-dose prednisone, 2 mg per kg per day; cited from earlier work
# [1] = tested on: patients with Grade II GVHD with gastrointestinal symptoms; experiment: Phase III randomized, double-blind, placebo-controlled trial of oral BDP plus 10 days of prednisone: treatment failure and survival; assay type: in vivo, human; conditions: for Treatment failure rate (95% CI): Kaplan-Meier estimate
# Text: The Secondary objectives of the study were: • 1. To compare the proportion of treatment failures in the two groups on Study Days 10, 30, 50, 60, and 80. • 2. To compare the treatment groups with respect to cumulative systemic corticosteroid exposure. • 3. […] To compare the treatment groups with respect to total deaths and cause of death through 200 days post-transplant. • 6.
# To be eligible for entry into the study, patients must be at least 10 days post allogeneic hematopoietic cell transplantation, have GI symptoms consistent with Grade II GVHD, and have endoscopic evidence of GVHD. The diagnosis of GVHD was confirmed by biopsy of the intestine (esophagus, stomach, small intestine, or colon) or skin.
# This was a multi-center, randomized, double-blind, placebo-controlled, parallel-group study in patients with Grade II GVHD with GI symptoms. To determine eligibility for entry into the study, patients must undergo a screening evaluation, including intestinal or skin biopsy and infection work-up.
# The randomization was stratified by the source of the allograft (two HLA haplotype identical sibling versus all other), and by topical corticosteroid use (yes versus no). All patients received 10 days of prednisone at 1 mg/kg/day (or an equivalent dose of intravenous [IV] corticosteroid).
# For all patients, the second dose of study drug was administered on the morning of Study Day 2, after which dosing was 4 times daily until Study Day 50.
# All patients are monitored per standard post transplant routine in the hospital or outpatient clinic. Patients underwent study evaluations, included blood specimens for PK analysis, on Study Days 10, 30, 50, 60, and 80. In addition, adverse events that occurred during the interval since the prior visit are assessed and recorded. Following the final dose of study drug on the morning of Study Day 50, timed blood samples were obtained for up to 24 hours for PK analysis from some patients.
# • 1. […] Karnofsky Scale score if the patient is 16 years of age or older or the Lansky Scale score if the patient is younger than 16 years of age.
# • 1. Adverse events. • 2. Cumulative prednisone dose (per kg of body weight). • 3. Worsening of GVHD as determined through the assessment of diarrhea, rash, and bilirubin levels. • 4. HPA axis function. • 5. Hematology measurements (with differential, including eosinophils) at Baseline and Study Day 50. • 6. Serum chemistry and urinalysis measurements at Baseline and Study Day 50. • 7. Patient survival through day 200 post-transplant.
# The primary efficacy endpoint of this two-arm study is the time to treatment failure. The primary efficacy analysis will compare the time to treatment failure through Study Day 50 using a log-rank test controlling for patient randomization stratum. Product-limit estimates for time to failure will be provided for descriptive purposes. The null hypothesis for the log-rank test is that time to failure is homogeneous across the treatment groups.
# Secondary analyses of treatment failure compared the treatment groups with respect to proportion of treatment failures and Karnofsky Scale (or Lansky Scale) scores at key time points.
# Both regimens included oral prednisone (1 mg/kg/day) or an equivalent dose of IV methylprednisolone (dose of IV methylprednisolone=0.8×dose of oral prednisone) given in 2 divided doses per day on Study Days 1 to 10.
# On Study Day 10, patients were evaluated for the signs and symptoms of GVHD. […] Starting on Study Day 17, physiologic replacement doses of prednisone were given for the remainder of the study. If the investigator determined that GVHD was not controlled on Study Day 10, patients discontinued study drug but continued prednisone initially at 1 mg/kg/day; these patients were considered to be treatment failures. In treatment failure cases, physicians subsequently modified prednisone dosage as deemed appropriate.
# [2] = tested on: patients with gastrointestinal GVHD; conditions: cited from earlier work
smiles,measurement,setting,value
"C[C@]12C=CC(=O)C=C1CC[C@@H]1[C@@H]2C(=O)C[C@@]2(C)[C@H]1CC[C@]2(O)C(=O)CO [Prednisone, prednisone]",complete and sustained remission of gastrointestinal symptoms,patients with GVHD,50-70 % of patients
"CCC(=O)OCC(=O)[C@@]1(OC(=O)CC)[C@@H](C)C[C@H]2[C@@H]3CCC4=CC(=O)C=C[C@]4(C)[C@@]3(Cl)[C@@H](O)C[C@@]21C [BDP, beclomethasone dipropionate]",Day 200 survival rate (95% CI),"[1]; 200 days post-transplant, Safety Population","0.91 (0.86, 0.98)"
same,Treatment failure rate (95% CI),[1]; Study Day 10,"0.14 (0.08, 0.24)"
same,Treatment failure rate (95% CI),[1]; Study Day 30,"0.25 (0.18, 0.37)"
same,Treatment failure rate (95% CI),[1]; Study Day 50,"0.31 (0.23, 0.43)"
same,Treatment failure rate (95% CI),[1]; Study Day 60,"0.33 (0.24, 0.45)"
same,Treatment failure rate (95% CI),[1]; Study Day 80,"0.39 (0.30, 0.52)"
same,"time to treatment failure through Day 50 (primary endpoint), significance versus placebo","[1]; through Day 50, p-value 0.1177",did not achieve statistical significance
same,"time to treatment failure through Day 80 (secondary endpoint), significance versus placebo","[1]; through Day 80, p-value 0.0226",did achieve statistical significance
same,"appetite, oral intake, nausea and diarrhea over the course of therapy","[2]; 8 mg daily oral, BDP alone and added to prednisone",Significant improvement
same,treatment-related adverse events,[2]; 8 mg/day for 28 days,No significant treatment-related adverse events
same,time to improvement,[2]; BDP as monotherapy,7 to 10 days
same,safety and efficacy in mild-to-moderate intestinal GVHD,[2]; alone or added to prednisone,safe and effective
